Source: publication PMC4501872 (The Journal of steroid biochemistry and molecular biology, 2015)
Where two headings read alike, the source gives them in different places.

Key:
human SULT2A1 = target: T1, human SULT2A1 (Homo sapiens, UniProt Q06520); format: biochemical; conditions: for rate of 3-sulfate formation in the absence of celecoxib: 2 μM 35S-PAPS for 6D-E2, 20 μM PAPS for the others; for rate of 17-sulfate formation in the absence of celecoxib: 2 μM 35S-PAPS for 6D-E2, 20 μM PAPS for 17β-Eqn; for SULT2A1 enzyme activity toward the substrate: control activity
T1 sequence (Q06520 1-285): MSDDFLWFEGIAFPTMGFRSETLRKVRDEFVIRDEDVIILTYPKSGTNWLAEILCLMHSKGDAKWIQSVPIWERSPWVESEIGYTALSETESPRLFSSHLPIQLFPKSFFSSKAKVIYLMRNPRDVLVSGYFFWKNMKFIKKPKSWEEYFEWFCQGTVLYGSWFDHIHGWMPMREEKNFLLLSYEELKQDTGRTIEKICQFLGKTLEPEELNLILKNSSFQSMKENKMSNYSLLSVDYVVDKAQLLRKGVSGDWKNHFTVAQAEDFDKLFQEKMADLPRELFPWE

[1] = calculated, following a therapeutic dose of 200 mg; cited from earlier work
[2] = No celecoxib, 0.16 μM E2, PAPS 20 μM
[3] = No celecoxib, 0.4 μM E2, PAPS 20 μM
[4] = Celecoxib (50 μM) added after PAPS (20 μM), 0.16 μM E2
[5] = Celecoxib (50 μM) added after PAPS (20 μM), 0.4 μM E2
[6] = Celecoxib (50 μM) added before PAPS (20 μM), 0.16 μM E2
[7] = Celecoxib (50 μM) added before PAPS (20 μM), 0.4 μM E2

C[C@]12CC[C@@H]3c4cc(O)c(O)cc4CC[C@H]3[C@@H]1CC[C@@H]2O [2-OH-E2, 2-hydroxyestradiol]
rate of 3-sulfate formation in the absence of celecoxib (human SULT2A1; 0.4 μM substrate): 2 pmol/min/mg protein

C[C@]12CC[C@@H]3c4ccc(O)c(O)c4CC[C@H]3[C@@H]1CC[C@@H]2O [4-OH-E2, 4-hydroxyestradiol]
rate of 3-sulfate formation in the absence of celecoxib (human SULT2A1; 0.4 μM substrate): 15 pmol/min/mg protein

C[C@]12CC[C@@H]3c4ccc(O)cc4C=C[C@H]3[C@@H]1CC[C@@H]2O [6D-E2, 6-dehydroestradiol]
rate of 17-sulfate formation in the absence of celecoxib (human SULT2A1; 0.4 μM substrate): 2 pmol/min/mg protein
rate of 3-sulfate formation in the absence of celecoxib (human SULT2A1; 0.4 μM substrate): 51 pmol/min/mg protein

C[C@]12CC=C3c4ccc(O)cc4CC[C@H]3[C@@H]1CC[C@@H]2O [9D-E2, 9-dehydroestradiol]
rate of 3-sulfate formation in the absence of celecoxib (human SULT2A1; 0.4 μM substrate): 14 pmol/min/mg protein

C[C@]12CC[C@@H]3c4ccc(O)cc4CC[C@H]3[C@@H]1CC[C@@H]2O [17β-E2, 17β-estradiol]
17-sulfate produced relative to 3-sulfate in the absence of celecoxib (human SULT2A1; 0.4 μM substrate, Figure 6G): around 76 times
Product formed, 3-sulfate (human SULT2A1; [2]): 150 pmol/min/mg protein
Product formed, 17-sulfate (human SULT2A1; [2]): Not detected
Product formed, Total sulfates (human SULT2A1; [2]): 150 pmol/min/mg protein
Product formed, 3-sulfate (human SULT2A1; [3]): 306 pmol/min/mg protein
Product formed, 17-sulfate (human SULT2A1; [3]): Not detected
Product formed, Total sulfates (human SULT2A1; [3]): 306 pmol/min/mg protein

C[C@]12CC[C@H]3C(=CCc4cc(O)ccc43)[C@@H]1CC[C@@H]2O [17β-Eq, 17β-dihydroequilin]
rate of 3-sulfate formation in the absence of celecoxib (human SULT2A1; 0.4 μM substrate): 46 pmol/min/mg protein

C[C@]12CCc3c(ccc4cc(O)ccc34)[C@@H]1CC[C@@H]2O [17β-Eqn, 17β-dihydroequilenin]
rate of 17-sulfate formation in the absence of celecoxib (human SULT2A1; 0.4 μM substrate): 11.4 pmol/min/mg protein
rate of 3-sulfate formation in the absence of celecoxib (human SULT2A1; 0.4 μM substrate): 56 pmol/min/mg protein

C[C@]12CC[C@H]3[C@@H](CC=C4C[C@@H](O)CC[C@@]43C)[C@@H]1CC[C@@H]2O [AD, 5-androsten-3β,17β-diol]
SULT2A1 enzyme activity toward the substrate (human SULT2A1; 0.4 μM substrate): 8–9 nmol sulfate/min/mg protein

C[C@]12CC[C@H](O)CC1=CC[C@@H]1[C@@H]2CC[C@]2(C)C(=O)CC[C@@H]12 [DHEA, dehydroepiandrosterone]
SULT2A1 enzyme activity toward the substrate (human SULT2A1; 0.4 μM substrate): 8–9 nmol sulfate/min/mg protein

C[C@]12CC[C@H]3[C@@H](CCC4=CC(=O)CC[C@@]43C)[C@@H]1CC[C@H]2O [Epi-T, epi-testosterone]
SULT2A1 enzyme activity toward the substrate (human SULT2A1; 0.4 μM substrate): 8–9 nmol sulfate/min/mg protein
rate of sulfonation of Epi-T relative to T (human SULT2A1; control activities, 0.4 μM substrate): 7 times

Cc1ccc(-c2cc(C(F)(F)F)nn2-c2ccc(S(N)(=O)=O)cc2)cc1 [celecoxib]
maximum liver concentration of celecoxib [1]: 230 µM
effect on sulfonation of E1 (human SULT2A1; 0–80 μM celecoxib, 0.4 μM E1, p > 0.05, ANOVA): not affected significantly
celecoxib concentration at which 4-OH-E2 17-sulfate and 3-sulfate curves cross (human SULT2A1; 0.4 μM 4-OH-E2, 20 μM PAPS): approximately 30 μM
enhancement of total sulfate product formation from 6D-E2 (human SULT2A1; 50 μM celecoxib, 0.4 μM 6D-E2): over 8 fold
increase of total product formation from 9D-E2 (human SULT2A1; 80 μM celecoxib, 0.4 μM 9D-E2): 9.4 times
stimulation of 17β-Eqn–17-sulfate formation compared with absence of celecoxib (human SULT2A1; 80 μM celecoxib, 0.4 μM 17β-Eqn): 34 fold
celecoxib concentrations at which 17β-E2–3-S decreased (human SULT2A1; 0.05, 0.2 and 0.4 μM 17β-E2): ≥ 50 µM
celecoxib concentration at which stimulation of 17β-E2–17-S formation peaked (human SULT2A1; 0.2 and 0.4 μM 17β-E2): 50 µM
Product formed, 3-sulfate (human SULT2A1; [4]): 85 pmol/min/mg protein
Product formed, 17-sulfate (human SULT2A1; [4]): 199 pmol/min/mg protein
Product formed, Total sulfates (human SULT2A1; [4]): 284 pmol/min/mg protein
Product formed, 3-sulfate (human SULT2A1; [5]): 177 pmol/min/mg protein
Product formed, 17-sulfate (human SULT2A1; [5]): 387 pmol/min/mg protein
Product formed, Total sulfates (human SULT2A1; [5]): 564 pmol/min/mg protein
Product formed, 3-sulfate (human SULT2A1; [6]): 155 pmol/min/mg protein
Product formed, 17-sulfate (human SULT2A1; [6]): 432 pmol/min/mg protein
Product formed, Total sulfates (human SULT2A1; [6]): 587 pmol/min/mg protein
Product formed, 3-sulfate (human SULT2A1; [7]): 363 pmol/min/mg protein
Product formed, 17-sulfate (human SULT2A1; [7]): 1076 pmol/min/mg protein
Product formed, Total sulfates (human SULT2A1; [7]): 1439 pmol/min/mg protein
effect on sulfonation of DHEA or AD at low concentrations (human SULT2A1; celecoxib 0–40 μM): did not affect
effect on 17β-Eq-3-sulfate formation (human SULT2A1; celecoxib range studied (0–80 μM), 0.4 μM 17β-Eq): No inhibition
rate of 3-sulfate formation when inhibited by celecoxib (Figure 6G substrate) (human SULT2A1; data not shown): < 1 pmol/min/mg protein
increase of total sulfonation of 6D-E2, 17β-Eqn and 9D-E2 (human SULT2A1; summary in discussion): over 8 fold
effect on formation of 3Me-E2–17β-sulfate (human SULT2A1; up to 80 μM celecoxib, 0.4 μM 3Me-E2, not saturated at 80 μM): stimulated the formation of 3Me-E2–17β-sulfate in a concentration dependent manner
